The text below walks through data of article PMC6133773 (The Journal of organic chemistry, 2018).

Test [1] concerns the target T1, IspD (Escherichia coli, UniProt Q46893).
T1 sequence (Q46893 2-236): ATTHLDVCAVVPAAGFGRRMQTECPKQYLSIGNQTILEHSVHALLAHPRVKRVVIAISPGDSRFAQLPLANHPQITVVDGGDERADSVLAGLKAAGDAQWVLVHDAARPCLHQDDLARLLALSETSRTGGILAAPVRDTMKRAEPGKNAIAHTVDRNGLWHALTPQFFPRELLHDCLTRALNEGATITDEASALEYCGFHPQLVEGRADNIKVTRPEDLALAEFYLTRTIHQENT
The experiment in a line: MESG coupled pyrophosphate assay, inhibition of MEP turnover. Format: biochemical.

In test [2] the target is T2, IspD (Plasmodium falciparum, UniProt Q8I273).
T2 sequence (Q8I273 60-734): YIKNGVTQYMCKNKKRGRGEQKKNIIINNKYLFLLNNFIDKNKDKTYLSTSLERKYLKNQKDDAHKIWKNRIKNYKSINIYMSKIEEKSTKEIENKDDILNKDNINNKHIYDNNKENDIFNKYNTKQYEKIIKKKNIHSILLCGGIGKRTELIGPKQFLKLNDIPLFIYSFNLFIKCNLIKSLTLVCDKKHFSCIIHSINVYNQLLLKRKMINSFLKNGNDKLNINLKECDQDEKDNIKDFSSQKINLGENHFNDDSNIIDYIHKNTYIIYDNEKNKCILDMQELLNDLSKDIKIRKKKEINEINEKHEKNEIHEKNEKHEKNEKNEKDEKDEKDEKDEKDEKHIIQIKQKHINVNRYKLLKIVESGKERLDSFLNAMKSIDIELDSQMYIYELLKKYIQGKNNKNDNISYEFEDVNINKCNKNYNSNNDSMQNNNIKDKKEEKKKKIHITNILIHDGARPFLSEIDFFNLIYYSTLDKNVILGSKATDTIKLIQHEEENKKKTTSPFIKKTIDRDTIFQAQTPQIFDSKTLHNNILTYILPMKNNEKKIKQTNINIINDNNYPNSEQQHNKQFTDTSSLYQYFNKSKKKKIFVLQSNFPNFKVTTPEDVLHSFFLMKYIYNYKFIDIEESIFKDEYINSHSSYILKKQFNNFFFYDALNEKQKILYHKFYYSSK
The test is described as above. In kind it is biochemical.

By IC50 is commonly meant the midpoint of a concentration-inhibition curve. A higher IC50 goes with lower potency. Consider `C[C@](O)(CO)[C@H](O)C[C@@H](F)P(=O)(O)O` [5b, (5S)-D-methylerythritol monofluoromethyl phosphonate], for which the IC50 is 700 ± 100 µM against IspD [1] and 1300 ± 700 µM against IspD [2].
